Results as given in patent US7157256B2, “Method for producing para-hydroxystyrene and other multifunctional aromatic compounds using two-phase extractive fermentation” (E. I. du Pont de Nemours and Company, priority 2003, dated 2007).
“And” between values parts separate entries of the source, which are not always exact repeats. Equal entries are not always repeated.

What was measured:
E. coli WWQ51.1 = assay: Growth of E. coli with added pHS in two-phase fermentation; type: cell-based; details: 0.5 mL pHS (10% w/v) added; 20 mL 2-Undecanone; IPTG 0.5 mM
Protocol: The strain used in this study was E. coli WWQ51.1, as described in Example 3. The conditions were similar to those described in Example 3. Eight test cultures were inoculated; six contained 20 mL of 2-undecanone, the other two contained 20 mL of 1-undecanol. A 10% w/v solution of pHS in propylene glycol (0.5 mL), obtained from Sigma-Aldrich, Milwaukee, Wis., was added to two of the cultures containing 2-undecanone, as specified in Table 7.
The cultures were incubated in 250 mL baffled flasks at 35° C. and 300 rpm for 24 h in an incubator shaker. After this time, a sample of the aqueous phase was withdrawn and the pH, OD550, and the concentration of the fermentation products were measured, as described supra. The organic phase was also sampled and the concentration of CA and pHS were determined using HPLC, as described supra.

[1] = system: P. putida strain S12 (ATCC No. 700801); assay: Effect of pHS on the growth of Pseudomonas putida; type: cell-based; details: for Growth Rate, %: percentage of growth without pHS
Protocol: This study was done using P. putida strain S12 (ATCC No. 700801), obtained from the American Type Culture Collection. This P. putida strain was grown at 30° C. in 20 mL of LB medium containing 0.25% glucose and 10 mM MgSO4 in a 125 mL baffled flask until stationary phase was achieved. Aliquots from this stationary phase culture were plated on LB agar plates containing 0.25% glucose, 10 mM MgSO4, and 1 g/L pHS, and incubated at 30° C. for several days. Colonies from these plates were streaked on identical plates and grown as described above. An individual colony from these plates was used to inoculate 20 mL of liquid LB medium containing 0.5% glucose, 10 mM MgSO4 and 1 g/L pHS. This culture was grown in a 125 mL baffled flask at 30° C. and 200 rpm in an incubator shaker until stationary phase was achieved. These stationary phase cells (0.5 mL) were added to 20 mL of a test medium consisting of LB medium, 0.5% glucose, 10 mM MgSO4 and either 0, 1.0, or 1.25 g/L pHS. These cultures were grown in 125 mL baffled flasks at 30° C. and 200 rpm in an incubator shaker. Cell growth in these cultures was monitored by taking aliquots, diluting them with an equal volume of 1,2-propanediol, and measuring the OD at 600 nm. These OD measurements were used to calculate the doubling time and growth rate as a percentage of growth observed in the test medium without pHS.

## C=Cc1ccc(O)cc1 [pHS, para-hydroxystyrene]
E. coli WWQ51.1
  OD550 24 h: 15.7 and 12.5
[1]; pHS 1.0 g/L, pHS-adapted cells, LB medium, 30° C.
  Doubling Time: 118 min
[1]; pHS 1.0 g/L
  Growth Rate, %: 85%
[1]; pHS 1.25 g/L
  Doubling Time: 111 min
  Growth Rate, %: 90%
